# Source: PubChem BioAssay AID1963963 (Molecular Pharmacology Branch, DTP, NCI, 2024)
# System: 958667-338-R-J2-PDC tumor spheroids viability
# Test: Anticancer human tumor 958667-338-R-J2-PDC patient-derived colon adenocarcinoma cell line growth inhibition [PI3K]
# Conditions: spheroids with HUVEC and MSC; for IC50: curve of first compound; for viability, T/C: stronger effect = lower value
# Summary of the method: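 Stroma-containing spheroids: tumor line, pooled-donor HUVEC, hMSC. Treatments: targeted agents with PI3K inhibitors. Dosing: clinically relevant, half-log spacing, 10 microM ceiling without known Cmax. Read-out: cell viability.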
# [1] = second compound 0.0316 µM, first compound 0.0316 µM
# [2] = second compound 0.0316 µM, first compound 0.1 µM
# [3] = second compound 0.1 µM, first compound 0.0316 µM
# [4] = second compound 0.1 µM, first compound 0.1 µM
# [5] = second compound 0.316 µM, first compound 0.0316 µM
# [6] = second compound 0.316 µM, first compound 0.1 µM
# [7] = second compound 1 µM, first compound 0.0316 µM
# [8] = second compound 1 µM, first compound 0.1 µM
# [9] = second compound 3.16 µM, first compound 0.0316 µM
# [10] = second compound 3.16 µM, first compound 0.1 µM
# [11] = second compound 10 µM, first compound 0.0316 µM
# [12] = second compound 10 µM, first compound 0.1 µM
# 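Further: spheroids exposed to compounds for seven days before readout.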
compound,measurement,setting,value
C[C@@H](NC(=O)c1ncnc(N)c1Cl)c1ncc(C(=O)Nc2cc(C(F)(F)F)c(Cl)cn2)s1 + CC(Nc1ncnc2nc[nH]c12)c1cc2cccc(Cl)c2c(=O)n1-c1ccccc1,IC50,second compound 0.0316 µM,> 10 µM
same,IC50,second compound 0.1 µM,> 10 µM
same,IC50,second compound 0.316 µM,> 10 µM
same,IC50,second compound 1 µM,> 10 µM
same,IC50,second compound 3.16 µM,> 10 µM
same,IC50,second compound 10 µM,> 10 µM
same,"viability, T/C",[1],129%
same,"viability, T/C",[2],114%
same,"viability, T/C","second compound 0.0316 µM, first compound 0.316 µM",99.7%
same,"viability, T/C","second compound 0.0316 µM, first compound 1 µM",95.9%
same,"viability, T/C","second compound 0.0316 µM, first compound 3.16 µM",84.1%
same,"viability, T/C","second compound 0.0316 µM, first compound 10 µM",74.9%
same,"viability, T/C",[3],98%
same,"viability, T/C",[4],115%
same,"viability, T/C","second compound 0.1 µM, first compound 0.316 µM",99.9%
same,"viability, T/C","second compound 0.1 µM, first compound 1 µM",108%
same,"viability, T/C","second compound 0.1 µM, first compound 3.16 µM",97.6%
same,"viability, T/C","second compound 0.1 µM, first compound 10 µM",73.3%
same,"viability, T/C",[5],98.2%
same,"viability, T/C",[6],106%
same,"viability, T/C","second compound 0.316 µM, first compound 0.316 µM",96.3%
same,"viability, T/C","second compound 0.316 µM, first compound 1 µM",102%
same,"viability, T/C","second compound 0.316 µM, first compound 3.16 µM",94.3%
same,"viability, T/C","second compound 0.316 µM, first compound 10 µM",94.3%
same,"viability, T/C",[7],83.7%
same,"viability, T/C",[8],93.3%
same,"viability, T/C","second compound 1 µM, first compound 0.316 µM",102%
same,"viability, T/C","second compound 1 µM, first compound 1 µM",100%
same,"viability, T/C","second compound 1 µM, first compound 3.16 µM",89.1%
same,"viability, T/C","second compound 1 µM, first compound 10 µM",73.2%
same,"viability, T/C",[9],112%
same,"viability, T/C",[10],89%
same,"viability, T/C","second compound 3.16 µM, first compound 0.316 µM",96.1%
same,"viability, T/C","second compound 3.16 µM, first compound 1 µM",82.6%
same,"viability, T/C","second compound 3.16 µM, first compound 3.16 µM",99.4%
same,"viability, T/C","second compound 3.16 µM, first compound 10 µM",75.5%
same,"viability, T/C",[11],110%
same,"viability, T/C",[12],98.5%
same,"viability, T/C","second compound 10 µM, first compound 0.316 µM",96.5%
same,"viability, T/C","second compound 10 µM, first compound 1 µM",96.1%
same,"viability, T/C","second compound 10 µM, first compound 3.16 µM",92.9%
same,"viability, T/C","second compound 10 µM, first compound 10 µM",107%
Cn1ncnc1[C@H]1c2n[nH]c(=O)c3cc(F)cc(c23)N[C@@H]1c1ccc(F)cc1 + CC(Nc1ncnc2nc[nH]c12)c1cc2cccc(Cl)c2c(=O)n1-c1ccccc1,IC50,second compound 0.0316 µM,> 0.1 µM
same,IC50,second compound 0.1 µM,> 0.1 µM
same,IC50,second compound 0.316 µM,> 0.1 µM
same,IC50,second compound 1 µM,> 0.1 µM
same,IC50,second compound 3.16 µM,> 0.1 µM
same,IC50,second compound 10 µM,> 0.1 µM
same,"viability, T/C","second compound 0.0316 µM, first compound 0.000316 µM",103%
same,"viability, T/C","second compound 0.0316 µM, first compound 0.001 µM",114%
same,"viability, T/C","second compound 0.0316 µM, first compound 0.00316 µM",105%
same,"viability, T/C","second compound 0.0316 µM, first compound 0.01 µM",110%
same,"viability, T/C",[1],113%
same,"viability, T/C",[2],98%
same,"viability, T/C","second compound 0.1 µM, first compound 0.000316 µM",103%
same,"viability, T/C","second compound 0.1 µM, first compound 0.001 µM",82.8%
same,"viability, T/C","second compound 0.1 µM, first compound 0.00316 µM",117%
same,"viability, T/C","second compound 0.1 µM, first compound 0.01 µM",126%
same,"viability, T/C",[3],119%
same,"viability, T/C",[4],83.6%
same,"viability, T/C","second compound 0.316 µM, first compound 0.000316 µM",120%
same,"viability, T/C","second compound 0.316 µM, first compound 0.001 µM",114%
same,"viability, T/C","second compound 0.316 µM, first compound 0.00316 µM",111%
same,"viability, T/C","second compound 0.316 µM, first compound 0.01 µM",116%
same,"viability, T/C",[5],118%
same,"viability, T/C",[6],94.7%
same,"viability, T/C","second compound 1 µM, first compound 0.000316 µM",109%
same,"viability, T/C","second compound 1 µM, first compound 0.001 µM",112%
same,"viability, T/C","second compound 1 µM, first compound 0.00316 µM",99.9%
same,"viability, T/C","second compound 1 µM, first compound 0.01 µM",100%
same,"viability, T/C",[7],95.2%
same,"viability, T/C",[8],96.3%
same,"viability, T/C","second compound 3.16 µM, first compound 0.000316 µM",107%
same,"viability, T/C","second compound 3.16 µM, first compound 0.001 µM",109%
same,"viability, T/C","second compound 3.16 µM, first compound 0.00316 µM",99.2%
same,"viability, T/C","second compound 3.16 µM, first compound 0.01 µM",89.9%
same,"viability, T/C",[9],94.7%
same,"viability, T/C",[10],89.8%
same,"viability, T/C","second compound 10 µM, first compound 0.000316 µM",93.7%
same,"viability, T/C","second compound 10 µM, first compound 0.001 µM",98.3%
same,"viability, T/C","second compound 10 µM, first compound 0.00316 µM",109%
same,"viability, T/C","second compound 10 µM, first compound 0.01 µM",89.9%
same,"viability, T/C",[11],83.2%
same,"viability, T/C",[12],88.4%
